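Assay format: 96-well plates, 48-hour exposure. Abbreviation: GI50, concentration required for 50% inhibition of growth. The concentration for full growth arrest is given as TGI.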
Columns and labels:
Assay in all cases: NCI anticancer screen, dose series, 48 h
[1] = tested on: SN12C renal
[2] = tested on: HL-60(TB) leukemia
[3] = tested on: SF-295 CNS
[4] = tested on: SK-MEL-5 melanoma
[5] = tested on: OVCAR-8 ovarian
[6] = tested on: SK-OV-3 ovarian
[7] = tested on: HCC-2998 colon
[8] = tested on: SK-MEL-28 melanoma
[9] = tested on: SF-539 CNS
[10] = tested on: NCI/ADR-RES ovarian
[11] = tested on: OVCAR-3 ovarian
[12] = tested on: HOP-62 NSCLC
[13] = tested on: EKVX NSCLC
[14] = tested on: OVCAR-4 ovarian
[15] = tested on: M14 melanoma
[16] = tested on: UO-31 renal
[17] = tested on: HT29 colon
[18] = tested on: UACC-257 melanoma
[19] = tested on: SF-268 CNS
[20] = tested on: PC-3 prostate
[21] = tested on: MALME-3M melanoma
[22] = tested on: MDA-MB-231 breast
[23] = tested on: HOP-92 NSCLC
[24] = tested on: CAKI-1 renal
[25] = tested on: TK-10 renal
[26] = tested on: HCT-15 colon
[27] = tested on: NCI-H460 lung
[28] = tested on: K-562 leukemia
[29] = tested on: RPMI-8226 leukemia
[30] = tested on: UACC-62 melanoma
[31] = tested on: BT-549 breast
[32] = tested on: ACHN renal
[33] = tested on: U251 CNS
[34] = tested on: HS 578T breast
[35] = tested on: SK-MEL-2 melanoma
[36] = tested on: A498 renal
[37] = tested on: HCT-116 colon
[38] = tested on: DU-145 prostate
[39] = tested on: SW-620 colon
[40] = tested on: A549 NSCLC
[41] = tested on: MCF7 breast
[42] = tested on: RXF 393 renal
[43] = tested on: 786-0 renal
[44] = tested on: KM12 colon
[45] = tested on: OVCAR-5 ovarian
[46] = tested on: SNB-19 CNS
[47] = tested on: MOLT-4 leukemia
[48] = tested on: NCI-H522 lung
[49] = tested on: NCI-H23 lung
[50] = tested on: NCI-H226 lung
[51] = tested on: IGROV1 ovarian
[52] = tested on: MDA-MB-435
[53] = tested on: LOX IMVI melanoma
[54] = tested on: CCRF-CEM leukemia
[55] = tested on: T-47D breast
[56] = tested on: COLO 205 colon

SMILES: COc1cc(/C=C/c2cc(/C=C/c3ccc(O)c(OC)c3)n(-c3c(Cl)cccc3Cl)c(=O)n2)ccc1O
- GI50 [1]: 4.82 µM
- TGI [1]: 19.5 µM
- GI50 [2]: 2.64 µM
- TGI [2]: 14.4 µM
- GI50 [3]: 2.87 µM
- TGI [3]: 9.52 µM
- GI50 [4]: 2.18 µM
- TGI [4]: 4.86 µM
- GI50 [5]: 3.34 µM
- TGI [5]: 10.5 µM
- GI50 [6]: 2.78 µM
- TGI [6]: 10.6 µM
- GI50 [7]: 1.83 µM
- TGI [7]: 3.53 µM
- GI50 [8]: 2.74 µM
- TGI [8]: 10.1 µM
- GI50 [9]: 2.18 µM
- TGI [9]: 6.92 µM
- GI50 [10]: 3.53 µM
- TGI [10]: 22 µM
- GI50 [11]: 3.19 µM
- TGI [11]: 12.1 µM
- GI50 [12]: 3.41 µM
- TGI [12]: 12.8 µM
- GI50 [13]: 3.26 µM
- TGI [13]: 14.8 µM
- GI50 [14]: 4.61 µM
- TGI [14]: 16.9 µM
- GI50 [15]: 2.38 µM
- TGI [15]: 6.87 µM
- GI50 [16]: 2.74 µM
- TGI [16]: 12.3 µM
- GI50 [17]: 1.77 µM
- TGI [17]: 3.36 µM
- GI50 [18]: 3.32 µM
- TGI [18]: 11.3 µM
- GI50 [19]: 3.12 µM
- TGI [19]: 13.7 µM
- GI50 [20]: 4.68 µM
- TGI [20]: 25.3 µM
- GI50 [21]: 3.88 µM
- TGI [21]: 15.7 µM
- GI50 [22]: 3.65 µM
- TGI [22]: 15.1 µM
- GI50 [23]: 4.22 µM
- TGI [23]: 16.4 µM
- GI50 [24]: 14.6 µM
- TGI [24]: 30 µM
- GI50 [25]: 2.91 µM
- TGI [25]: 10.1 µM
- GI50 [26]: 2.44 µM
- TGI [26]: 9.66 µM
- GI50 [27]: 3.39 µM
- TGI [27]: 11.8 µM
- GI50 [28]: 3.11 µM
- TGI [28]: > 100 µM
- GI50 [29]: 2.96 µM
- TGI [29]: 22.7 µM
- GI50 [30]: 2.59 µM
- TGI [30]: 7.42 µM
- GI50 [31]: 2.07 µM
- TGI [31]: 6.67 µM
- GI50 [32]: 2.84 µM
- TGI [32]: 12.7 µM
- GI50 [33]: 2.37 µM
- TGI [33]: 6.36 µM
- GI50 [34]: 5.48 µM
- TGI [34]: > 100 µM
- GI50 [35]: 3.3 µM
- TGI [35]: 12.9 µM
- GI50 [36]: 3.79 µM
- TGI [36]: 13.2 µM
- GI50 [37]: 1.31 µM
- TGI [37]: 5.25 µM
- GI50 [38]: 3.48 µM
- TGI [38]: 13 µM
- GI50 [39]: 3.11 µM
- TGI [39]: 10.5 µM
- GI50 [40]: 4.03 µM
- TGI [40]: 15 µM
- GI50 [41]: 2 µM
- TGI [41]: 11 µM
- GI50 [42]: 2.18 µM
- TGI [42]: 4.92 µM
- GI50 [43]: 2.74 µM
- TGI [43]: 8.51 µM
- GI50 [44]: 2.02 µM
- TGI [44]: 5.27 µM
- GI50 [45]: 2.76 µM
- TGI [45]: 11 µM
- GI50 [46]: 3.54 µM
- TGI [46]: 13.2 µM
- GI50 [47]: 3.38 µM
- TGI [47]: 22.6 µM
- GI50 [48]: 1.55 µM
- TGI [48]: 3.23 µM
- GI50 [49]: 2.38 µM
- TGI [49]: 6.68 µM
- GI50 [50]: 3.27 µM
- TGI [50]: 9.44 µM
- GI50 [51]: 3.01 µM
- TGI [51]: 12.3 µM
- GI50 [52]: 1.63 µM
- TGI [52]: 5.98 µM
- GI50 [53]: 1.68 µM
- TGI [53]: 3.57 µM
- GI50 [54]: 3.21 µM
- TGI [54]: 70.6 µM
- GI50 [55]: 3.44 µM
- TGI [55]: 22.7 µM
- GI50 [56]: 2.84 µM
- TGI [56]: 8.95 µM
